Data as given in ChEMBL document CHEMBL5252628, “Novel xanthone antibacterials: Semi-synthesis, biological evaluation, and the action mechanisms” (Bioorg Med Chem, 2023).
In brackets after ≈: the same amount, converted by molar mass. Activity calls are given as the source filed them. The calls are words filed in the database; no cut-off is given here. Where a SMILES comes first, the peptide text is derived from it. [ ]: non-standard residue; d: D form. Orn = NCCC[C@H](N)C(=O)O

Columns and labels:
A549 = assay: Cytotoxicity against human A549 cells assessed as reduction in cell viability at 25 ug/ml incubated for 72 hrs by CCK-8 assay; format: toxicity, cell-based; settings: a549, 72 h, dose 25 µg/ml
Staphylococcus aureus [1] = assay: Inhibition of biofilm formation in methicillin-resistant Staphylococcus aureus 2 at 1 times MIC incubated for 18 to 24 hrs by crystal violet staining based assay; format: functional; settings: time 18-24 hrs
Staphylococcus aureus [2] = assay: Inhibition of biofilm formation in Staphylococcus aureus ATCC 29213 at 1 times MIC incubated for 18 to 24 hrs by crystal violet staining based assay; format: functional; settings: time 18-24 hrs
Cell membrane [3] = assay: Disruption of membrane integrity in Staphylococcus aureus ATCC 29213 assessed as cell membrane damage at 5 x MIC incubated for 2 hrs by propidium iodide staining based assay; format: subcellular
Staphylococcus aureus [4] = assay: Antibacterial activity Staphylococcus aureus ATCC 29213 infected BALB/c mouse assessed as increase in skin thickness at 50 to 100 mg/kg,iv measured on day 1 and 3 after infection by hematoxylin and eosin staining based assay; format: functional, organism-based; settings: dose 50-100 mg/kg
Staphylococcus aureus [5] = assay: Bactericidal activity against Staphylococcus aureus ATCC 29213 assessed as reduction in colony forming unit at 4 times MIC measured after 4 hrs by time kill assay; format: functional
[6] = Cytotoxicity against human L02 cells assessed as reduction in cell viability incubated for 72 hrs by CCK-8 assay; format: toxicity, cell-based
[7] = Hemolytic activity in rabbit RBC assessed as hemolysis incubated for 1 hr by microtiter plate method; format: toxicity, cell-based, Oryctolagus cuniculus, Erythrocyte; settings: red blood cells
Staphylococcus aureus [8] = assay: Antibacterial activity against methicillin-resistant Staphylococcus aureus 2 assessed as blurred space in cytoplasm and cell wall at 5 x MIC incubated for 2 hrs by transmission electron microscopy analysis; format: functional, organism-based
Staphylococcus aureus [9] = assay: Antibacterial activity against methicillin-resistant Staphylococcus aureus 2 assessed as separation of plasma wall at 5 x MIC incubated for 2 hrs by transmission electron microscopy analysis; format: functional, organism-based
Staphylococcus aureus [10] = assay: Antibacterial activity Staphylococcus aureus ATCC 29213 infected BALB/c mouse assessed as reduction in bacterial burden at 50 to 100 mg/kg,iv measured on day 1 and 3 after infection; format: functional, organism-based; settings: dose 50-100 mg/kg
Staphylococcus aureus [11] = assay: Antibacterial activity against Staphylococcus aureus ATCC 29213 assessed as inhibition of bacterial growth incubated for 18 to 24 hrs by broth microdilution assay; format: functional; settings: time 18-24 hrs
Cell membrane [12] = assay: Induction of cell membrane permeability in Staphylococcus aureus ATCC 29213 at 5 x MIC incubated for 2 hrs by TO-PRO-3 reagent flow cytometry assay; format: subcellular
Staphylococcus aureus [13] = assay: Antibacterial activity Staphylococcus aureus ATCC 29213 infected BALB/c mouse assessed as IL-1beta cytokine level at 50 to 100 mg/kg,iv measured on day 1 and 3 after infection; format: functional, organism-based; settings: dose 50-100 mg/kg
Staphylococcus aureus [14] = assay: Antibacterial activity against Staphylococcus aureus ATCC 29213 assessed as blurred space in cytoplasm and cell wall at 5 x MIC incubated for 2 hrs by transmission electron microscopy analysis; format: functional, organism-based
Staphylococcus aureus [15] = assay: Antibacterial activity Staphylococcus aureus ATCC 29213 infected BALB/c mouse assessed as decrease in volume of skin abscess at 50 to 100 mg/kg,iv measured on day 1 and 3 after infection; format: functional, organism-based; settings: dose 50-100 mg/kg
Staphylococcus aureus [16] = assay: Antibacterial activity against Staphylococcus aureus ATCC 33591 assessed as inhibition of bacterial growth incubated for 18 to 24 hrs by broth microdilution assay; format: functional; settings: time 18-24 hrs
Staphylococcus aureus [17] = assay: Antibacterial activity against Staphylococcus aureus ATCC 29213 assessed as separation of plasma wall at 5 x MIC incubated for 2 hrs by transmission electron microscopy analysis; format: functional, organism-based
Staphylococcus aureus [18] = assay: Antibacterial activity against Staphylococcus aureus ATCC 43300 assessed as inhibition of bacterial growth incubated for 18 to 24 hrs by broth microdilution assay; format: functional; settings: time 18-24 hrs
Staphylococcus aureus [19] = assay: Inhibition of biofilm formation in methicillin-resistant Staphylococcus aureus 2 at 4 to 16 microg/ml incubated for 18 to 24 hrs by crystal violet staining based assay; format: functional, organism-based; settings: dose 4-16 µg/ml, time 18-24 hrs
Staphylococcus aureus [20] = assay: Antibacterial activity against methicillin-resistant Staphylococcus aureus 2 assessed as cell wall loosening at 5 x MIC incubated for 2 hrs by transmission electron microscopy analysis; format: functional, organism-based
Staphylococcus aureus [21] = assay: Antibacterial activity against Staphylococcus aureus ATCC 29213 assessed as appearance of circular vesicles at 5 x MIC incubated for 2 hrs by transmission electron microscopy analysis; format: functional, organism-based
Staphylococcus aureus [22] = assay: Antibacterial activity against Staphylococcus aureus SH-27 assessed as inhibition of bacterial growth incubated for 18 to 24 hrs by broth microdilution assay; format: functional; settings: time 18-24 hrs
Staphylococcus aureus [23] = assay: Antibacterial activity against methicillin-resistant Staphylococcus aureus 2 assessed as appearance of circular vesicles at 5 x MIC incubated for 2 hrs by transmission electron microscopy analysis; format: functional, organism-based
Escherichia coli = assay: Antibacterial activity against Escherichia coli ATCC 25922 assessed as inhibition of bacterial growth incubated for 18 to 24 hrs by broth microdilution assay; format: functional; settings: time 18-24 hrs
Salmonella enteritidis = assay: Antibacterial activity against Salmonella enteritidis SM012 assessed as inhibition of bacterial growth incubated for 18 to 24 hrs by broth microdilution assay; format: functional, Salmonella enterica subsp. enterica serovar Enteritidis; settings: Salmonella enterica, time 18-24 hrs
Staphylococcus aureus [24] = assay: Inhibition of biofilm formation in Staphylococcus aureus ATCC 29213 at 4 to 16 microg/ml incubated for 18 to 24 hrs by crystal violet staining based assay; format: functional, organism-based; settings: dose 4-16 µg/ml, time 18-24 hrs
Staphylococcus aureus [25] = assay: Antibacterial activity Staphylococcus aureus ATCC 29213 infected BALB/c mouse assessed as decrease in degree of lesion at 50 to 100 mg/kg,iv measured on day 1 and 3 after infection by hematoxylin and eosin staining based assay; format: functional, organism-based; settings: dose 50-100 mg/kg
Staphylococcus aureus [26] = assay: Bactericidal activity against methicillin-resistant Staphylococcus aureus 2 assessed as reduction in colony forming unit at 4 times MIC measured after 4 hrs by time kill assay; format: functional
Cell membrane [27] = assay: Induction of cell membrane disruption in Staphylococcus aureus ATCC 29213 assessed as increase in protein leakage at 5 x MIC incubated for 2 hrs by coomassie brilliant blue dye assay; format: subcellular
Cell membrane [28] = assay: Induction of cell membrane disruption in Staphylococcus aureus ATCC 29213 assessed as increase in intracellular vanomycin content at 10 x MIC incubated for 2 hrs by UPLC analysis
Staphylococcus aureus [29] = assay: Bactericidal activity against Staphylococcus aureus ATCC 29213 assessed as reduction in colony forming unit at 1 to 8 times MIC incubated for 18 to 24 hrs by time kill assay; format: functional, organism-based; settings: time 18-24 hrs
Staphylococcus aureus [30] = assay: Antibacterial activity against Staphylococcus aureus ATCC 29213 assessed as cell wall loosening at 5 x MIC incubated for 2 hrs by transmission electron microscopy analysis; format: functional, organism-based
Staphylococcus aureus [31] = assay: Bactericidal activity against methicillin-resistant Staphylococcus aureus 2 assessed as reduction in colony forming unit at 1 to 8 times MIC incubated for 18 to 24 hrs by time kill assay; format: functional, organism-based; settings: time 18-24 hrs
Cell membrane [32] = assay: Induction of membrane depolarization in methicillin-resistant Staphylococcus aureus 2 at 5 x MIC incubated for 2 hrs by DiOC23 dye based based flow cytometry; format: subcellular
Cell membrane [33] = assay: Disruption of membrane integrity in Staphylococcus aureus ATCC 29213 assessed as cell membrane damage at 5 x MIC incubated for 2 hrs by DAPI staining based assay
Staphylococcus aureus [34] = assay: Antibacterial activity Staphylococcus aureus ATCC 29213 infected BALB/c mouse assessed as TNF-alpha cytokine level at 50 to 100 mg/kg,iv measured on day 1 and 3 after infection; format: functional, organism-based; settings: dose 50-100 mg/kg
Cell membrane [35] = assay: Induction of cell membrane permeability in methicillin-resistant Staphylococcus aureus 2 at 5 x MIC incubated for 2 hrs by TO-PRO-3 reagent flow cytometry assay; format: subcellular
Staphylococcus aureus [36] = assay: Induction of drug resistance in Staphylococcus aureus ATCC 29213 assessed as fold increase in MIC measured after 20 passage; format: functional
Staphylococcus aureus [37] = assay: Antibacterial activity against methicillin-resistant Staphylococcus aureus 2 assessed as inhibition of bacterial growth incubated for 18 to 24 hrs by broth microdilution assay; format: functional; settings: time 18-24 hrs
Cell membrane [38] = assay: Induction of cell membrane disruption in methicillin-resistant Staphylococcus aureus 2 assessed as increase in protein leakage at 5 x MIC incubated for 2 hrs by coomassie brilliant blue dye assay; format: subcellular
Cell membrane [39] = assay: Induction of membrane depolarization in Staphylococcus aureus ATCC 29213 at 5 x MIC incubated for 2 hrs by DiOC23 dye based based flow cytometry; format: subcellular
[40] = Cytotoxicity against human A549 cells assessed as reduction in cell viability incubated for 72 hrs by CCK-8 assay; format: toxicity, cell-based
Staphylococcus aureus [41] = assay: Antibacterial activity against Staphylococcus aureus ATCC 29213 assessed as appearance of cell round pellet at 5 x MIC incubated for 2 hrs by transmission electron microscopy analysis; format: functional, organism-based
Staphylococcus aureus [42] = assay: Antibacterial activity against methicillin-resistant Staphylococcus aureus 2 assessed as appearance of cell round pellet at 5 x MIC incubated for 2 hrs by transmission electron microscopy analysis; format: functional, organism-based

For `COc1c(O)cc2oc3cc(O)c(CC=C(C)C)c(OC(C)=O)c3c(=O)c2c1CC=C(C)C`, the Activity (A549) was “Non-Toxic”, the “inhibition (INH)” value (Staphylococcus aureus [1]) was 98% and the “inhibition (INH)” value (Staphylococcus aureus [2]) was 90%. For the same compound, the Activity (Cell membrane [3]) was “Active”, the Activity (Staphylococcus aureus [4]) was “Active” and the Activity (Staphylococcus aureus [5]) was 4.57 log10CFU. The IC50 at 72 h [6] was 22.1 µg/mL (≈ 48.8 µM), the HC50 at 1 h [7] was 6.3 µg/mL and the Activity (Staphylococcus aureus [8]) was “Active”. The Activity (Staphylococcus aureus [9]) was “Active”, the Activity (Staphylococcus aureus [10]) was “Active” and the MIC (Staphylococcus aureus [11]) was 4 µg/mL (≈ 8.84 µM). The Activity (Cell membrane [12]) was 100%, the Activity (Staphylococcus aureus [13]) was “Active” and the Activity (Staphylococcus aureus [14]) was “Active”. The Activity (Staphylococcus aureus [15]) was “Dose-Dependent Effect”, the MIC (Staphylococcus aureus [16]) was 1 µg/mL (≈ 2.21 µM) and the Activity (Staphylococcus aureus [17]) was “Active”. The MIC (Staphylococcus aureus [18]) was 1 µg/mL (≈ 2.21 µM), the inhibition (Staphylococcus aureus [19]) was “Dose-Dependent Effect” and the Activity (Staphylococcus aureus [20]) was “Active”. The Activity (Staphylococcus aureus [21]) was “Active”, the MIC (Staphylococcus aureus [22]) was 2 µg/mL (≈ 4.42 µM) and the Activity (Staphylococcus aureus [23]) was “Active”. The MIC (Escherichia coli) was over 256 µg/mL, the MIC (Salmonella enteritidis) was over 256 µg/mL and the inhibition (Staphylococcus aureus [24]) was “Dose-Dependent Effect”. For the same compound, the Activity (Staphylococcus aureus [25]) was “Active”, the Activity (Staphylococcus aureus [26]) was 3.72 log10CFU and the Activity (Cell membrane [27]) was “Active”. For the same compound, the Activity (Cell membrane [28]) was “Active”, the Activity (Staphylococcus aureus [29]) was “Active” and the Activity (Staphylococcus aureus [30]) was “Active”. For the same compound, the Activity (Staphylococcus aureus [31]) was “Active”, the Activity (Cell membrane [32]) was “Active” and the Activity (Cell membrane [33]) was “Active”. For the same compound, the Activity (Staphylococcus aureus [34]) was “Active”, the Activity (Cell membrane [35]) was 100% and the Activity (Staphylococcus aureus [36]) was “inactive”. For the same compound, the MIC (Staphylococcus aureus [37]) was 4 µg/mL (≈ 8.84 µM), the Activity (Cell membrane [38]) was “Active” and the Activity (Cell membrane [39]) was “Active”.
Compound `COc1c(OC(C)=O)cc2oc3cc(O)c(CC=C(C)C)c(O)c3c(=O)c2c1CC=C(C)C` has an IC50 at 72 h [6] of 13.2 µg/mL (≈ 29.2 µM), an HC50 at 1 h [7] of over 500 µg/mL and an MIC (Staphylococcus aureus [11]) of 4 µg/mL (≈ 8.84 µM). For the same compound, the MIC (Staphylococcus aureus [16]) was 2 µg/mL (≈ 4.42 µM), the MIC (Staphylococcus aureus [18]) was 2 µg/mL (≈ 4.42 µM) and the IC50 at 72 h [40] was 17.5 µg/mL (≈ 38.7 µM). It also gave an MIC (Staphylococcus aureus [22]) of 2 µg/mL (≈ 4.42 µM), an MIC (Escherichia coli) of over 256 µg/mL and an MIC (Salmonella enteritidis) of over 256 µg/mL. The MIC (Staphylococcus aureus [37]) was 2 µg/mL (≈ 4.42 µM).
With `CC(C)C[C@@H]1NC(=O)[C@H](CCCN)NC(=O)[C@H](C(C)C)NC(=O)[C@@H]2CCCN2C(=O)[C@@H](Cc2ccccc2)NC(=O)[C@H](CC(C)C)NC(=O)[C@H](CCCN)NC(=O)[C@H](C(C)C)NC(=O)[C@@H]2CCCN2C(=O)[C@@H](Cc2ccccc2)NC1=O` (cyclo(V[Orn]L[dF]PV[Orn]L[dF]P)) the Activity (Staphylococcus aureus [8]) was “Active”, the Activity (Staphylococcus aureus [9]) was “Active” and the Activity (Staphylococcus aureus [14]) was “Active”. The Activity (Staphylococcus aureus [41]) was “Active”, the Activity (Staphylococcus aureus [17]) was “Active” and the Activity (Staphylococcus aureus [20]) was “Active”. For the same compound, the Activity (Cell membrane [27]) was “Active”, the Activity (Staphylococcus aureus [30]) was “Active” and the Activity (Staphylococcus aureus [42]) was “Active”. The Activity (Cell membrane [38]) was “Active”.
